From publication PMC4159583, “Evaluation of the Interaction between Phosphohistidine Analogues and Phosphotyrosine Binding Domains” (Chembiochem, 2014)
Like-named read-outs stand apart in the source and are kept apart here. Blank lines part the entries; values can stand above or below the compound they belong to. *1 amine or outer side, *2 acyl side, *3 side chain or, on linkers, in order; H or OH if unused. Where a SMILES comes first, the peptide text is derived from it. [ ]: non-standard residue; d: D form. The star is where a group is joined. X2 = O=C(O)c1cc(NC(=S)*)ccc1-c1c2ccc(=O)cc-2oc2cc(O)ccc12; X1 = O=C([C@H](Cn1cc(P(=O)(O)O)nn1)N[*:1])[*:2]; pY = N[C@@H](Cc1ccc(OP(=O)(O)O)cc1)C(=O)O; phTz = not defined here; GABA = NCCCC(=O)O

How the values were obtained:
[1] = target: T1, monomeric His6-(Grb2-SH2), Grb2 SH2 domain (Homo sapiens, UniProt P62993); assay: ITC of peptides into monomeric His6-(Grb2-SH2) (late-eluting SEC peak 2); type: binding; conditions: for ITC outcome, standard conditions: final ratio of ligand to protein 2:1
T1 construct: His6-(Grb2-SH2), 13132 Da; made in house
Source text: (3 pictures or pasted objects on this page, not shown here)
(5 pictures or pasted objects on this page, not shown here)

His6-(Grb2-SH2) [2] = target: T2, His6-(Grb2-SH2) (Homo sapiens, UniProt P62993); assay: Competition fluorescence anisotropy/polarisation assay (displacement of 17); type: binding; conditions: for competition / displacement of 17: 200 nM 17 and 175 nM Grb2-SH2, serial dilutions of peptide, pH 7.4
T2 construct: His6-(Grb2-SH2), 13132 Da; made in house
Method: (§1) Fluorescence polarization experiments
(§2) Peptides were prepared as described above. Fluorescence polarization assays were carried out in 96 well plates (160 µL per well). All experiments were performed in 50 mM Tris.HCl, 100 mM NaCl pH 7.4 (ITC buffer). 2.5-fold or 3-fold dilution series of each peptide were routinely prepared before mixing in the plate well before data acquisition using a Perkin Elmer EnVision™ 2103 MultiLabel plate reader
(§3) Determination of binding of FITC-pY peptide 17 to Grb2-SH2 domain
(§4) Grb2-SH2 was serially diluted through ITC buffer containing 100 nM peptide 17 in triplicate and the fluorescence measured in parallel and perpendicular channels. The instrumental G factor for each experiment was approximated by assuming the anisotropy r = 0 for the free peptide. For each data point the total intensity I and anisotropy r were then determined by application of equations 3 and 4 below. Data were fit using a logistic model to obtain limiting maximum and minimum values […]
(§5) upon binding of the protein and the fraction bound was therefore calculated using equation 5 where λ = Ibound/Ifree. The fraction […]
(§6) IT = Iparallel+ 2GI perpendicular (3) r = Iparallel− GI perpendicular (4)
(§7) F = r − rmin where R = Ibound (5) […]
Competition binding assay […]
fitting using a logistic model to obtain an IC50 value.

[3] = target: T3, full-length Grb2 purified as a glutathione S-transferase (GST) fusion (GST-Grb2) (Homo sapiens, UniProt P62993); assay: ITC of peptides into full-length GST-Grb2; type: binding
T3 construct: made in house; host or cells: E. coli BL21-Gold (DE3)
Source text: Protein expression and purification
Isothermal Titration Calorimetry (ITC)

[4] = pKa determination by 31P NMR pH titration; type: physicochemical
Method: NMR data were collected using a Bruker DPX300 and analysed using MestReNova software. Experiments were carried out 121 MHz using peptide S1 or S2 at a concentration of 10 mM in 10% D2O in H2O (v/v, 2 mL) with an external standard of tris-carboxyethyl phosphine (TCEP) in H2O with a δ value set at 16.30 ppm.5 The pH of the solution was measured and adjusted by addition of 100 mM NaOH in 10% D2O in H2O (v/v) in portions of 5 µL. At higher pH values significant signal-broadening was observed, which precluded accurate determination of chemical shifts and such results were not included in calculations to determine pKa’s. The pKa was determined by fitting the observed chemical shift data to a Boltzmann distribution yielding pKas of ~5.8 for pTyr and 5.95 for the phosphotriazole analogue.
Equation )/(1 + exp((x-x0)
)/(1 + exp((x-x0) Chi-Sqr
Reduced Chi-S 0.00117 Value Standard Error
Figure S10. pH titrations of peptides S1 and S2 containing phosphotyrosine (S1, left) and phosphonotriazole (S2, right) 5Determined by a preliminary experiment using TCEP with an external standard of phosphoric acid (with a shift assigned as 0.00 ppm).
(also on this page, place not known: DPX3 00 software . usin g D 2O H 2O ppm. ad justed H 2O ( v/v) 5 signal-broa dening includ ed 31 P Chemical /ppm 0.01607 0.4 31 P Chemical shift /ppm shift)

Grb2 SH2 domain [5] = conditions: cited from earlier work
Source text: We envisaged producing suitable peptides by Fmoc-SPPS and investigating the interaction with proteins known to bind to phosphotyrosine. Our initial test system was the prototypical SH2 phosphotyrosine binding domain from Grb2.[19] […] A)15% SDS-PAGE: Lane 1 - MW markers, 2 & 3 –flow through Ni-NTA column of soluble fraction, 4 & 5 – elution of soluble fraction from Ni-NTA column, 6 – MW markers, 7 – insoluble fraction. B) 15% SDS-PAGE: Lane 1 - MW markers, 2 - insoluble fraction ...

Grb2 SH2 domain [6] = assay: Literature affinities for Grb2-SH2; type: binding; conditions: cited tripeptide Kd compared with own Kd of 11
His6-(Grb2-SH2) [7] = target: T2, His6-(Grb2-SH2); assay: Fluorescence anisotropy direct binding of FITC-pY peptide 17; conditions: 100 nM peptide 17, Grb2-SH2 serially diluted, triplicate; 50 mM Tris.HCl, 100 mM NaCl pH 7.4; fraction bound corrected for quenching; read-out: binding constant (Kd) by fluorescence anisotropy
Method: as §1, §2, §3, §4, §5, §6, §7
Competition binding assay
Grb2-SH2. […]

T1 sequence (P62993 with tags, fused parts or gaps): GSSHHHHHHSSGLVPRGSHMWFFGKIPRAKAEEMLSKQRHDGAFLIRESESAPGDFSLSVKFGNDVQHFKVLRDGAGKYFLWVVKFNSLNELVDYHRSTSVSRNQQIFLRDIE

ITC binding outcome, low c-value ([1]; low c-value conditions, final ratio of ligand to protein 8:1, indistinguishable from titration into buffer): no binding
ITC outcome, standard conditions [1]: inconclusive
competition / displacement of 17 (His6-(Grb2-SH2) [2]): No competition
ITC titration outcome ([3]; ITC, peptide titrated into GST-Grb2, 25 °C, ITC buffer pH 7.4): inconclusive
Compound: AcHN-Ser-phTz-Val-Asn-Val-Gln-NH2 ({Ac-Ser-phTz}-VNVQ-NH2; reading uncertain; also: printed as AcHN-Ser-phTz-Val-Asn-Val-Gln-NH2) [compound 15]

pKa [4]: 5.95
Compound: H-Cys-Gly-Ala-Gly-Ala-Gly pTz-Gly-Ala-Gly-Ala-Gly-OH [S2]

Compound: AcHN-pTyr-Val-Asn-NH2 [literature control tripeptide for Grb2-SH2]
Kd (Grb2 SH2 domain [5]; literature control tripeptide, main article, read-out: Kd for monomeric Grb2-SH2): 1600 nM
fold lower affinity for monomeric Grb2-SH2 than hexapeptide 11 (Grb2 SH2 domain [6]): ~ 5 fold

Compound: AcHN-Ser-pThr-Val-Asn-Val-Gln-NH2 [compound 21]
competition / displacement of 17 (His6-(Grb2-SH2) [2]): No competition

Compound: AcHN-Ser-pSer-Val-Asn-Val-Gln-NH2 [compound 20]
competition / displacement of 17 (His6-(Grb2-SH2) [2]): No competition

Compound: C[C@H](NC(=O)CNC(=O)[C@H](C)NC(=O)CNC(=O)[C@H](Cc1ccc(OP(=O)(O)O)cc1)NC(=O)CNC(=O)[C@H](C)NC(=O)CNC(=O)[C@H](C)NC(=O)CNC(=O)[C@@H](N)CS)C(=O)NCC(=O)O [S1, H-Cys-Gly-Ala-Gly-Ala-Gly pTyr-Gly-Ala-Gly-Ala-Gly-OH] (H-CGAGAG[pY]GAGAG-OH)
pKa ([4]; 31P NMR 121 MHz, peptide 10 mM in 10% D2O in H2O, titrated with 100 mM NaOH, Boltzmann fit of chemical shift): ~ 5.8

Compound: CC(=O)N[C@@H](CO)C(=O)N[C@@H](Cn1cc(P(=O)(O)O)nn1)C(=O)N[C@H](C(=O)N[C@@H](CC(N)=O)C(=O)N[C@H](C(=O)N[C@@H](CCC(N)=O)C(N)=O)C(C)C)C(C)C [compound 16, AcHN-Ser-pTz-Val-Asn-Val-Gln-NH2] (Ac-S[X1]VNVQ-NH2)
ITC outcome, standard conditions [1]: inconclusive
competition / displacement of 17 (His6-(Grb2-SH2) [2]): Binding (displacement of 17) was observed

Compound: N[C@@H](Cc1ccc(OP(=O)(O)O)cc1)C(=O)O [compound 4, phosphotyrosine]
pKa ([4]; NMR titrations (of peptides containing the residue), phosphoryl group): 5.8

Compound: CC(=O)N[C@@H](CO)C(=O)N[C@@H](Cc1ccc(OP(=O)(O)O)cc1)C(=O)N[C@H](C(=O)N[C@@H](CC(N)=O)C(=O)N[C@H](C(=O)N[C@@H](CCC(N)=O)C(N)=O)C(C)C)C(C)C [compound 11, AcHN-Ser-pTyr-Val-Asn-Val-Gln-NH2, reference compound] (Ac-S[pY]VNVQ-NH2)
IC50 (His6-(Grb2-SH2) [2]): 442 ± 80 nM
competition / displacement of 17 (His6-(Grb2-SH2) [2]): Binding (displacement of 17) was observed
Kd (Grb2 SH2 domain [5]; literature value for Shc-derived hexapeptide, read-out: Kd for Grb2 SH2 domain): 200 nM
Kd [3]: 196 ± 21 nM

Compound: CC(C)[C@H](NC(=O)[C@H](CC(N)=O)NC(=O)[C@@H](NC(=O)[C@H](Cc1ccc(OP(=O)(O)O)cc1)NC(=O)[C@H](CO)NC(=O)CCCNC(=S)Nc1ccc(-c2c3ccc(=O)cc-3oc3cc(O)ccc23)c(C(=O)O)c1)C(C)C)C(=O)N[C@@H](CCC(N)=O)C(N)=O [compound 17, FITC-Gaba-Ser-pTyr-Val-Asn-Val-Gln-NH2] ({X2-GABA}-S[pY]VNVQ-NH2)
Kd (His6-(Grb2-SH2) [7]): 283 ± 18 nM

Compound: AcHN-Ser-His-Val-Asn-Val-Gln-NH2 [compound 19]
competition / displacement of 17 (His6-(Grb2-SH2) [2]): No competition

Compound: AcHN-Ser-Tyr-Val-Asn-Val-Gln-NH2 [compound 18]
competition / displacement of 17 (His6-(Grb2-SH2) [2]): No competition
